Values quoted from earlier work in US20100047176A1, “Method and Kit for Testing Stress Effects in Living Organisms” (AARHUS UNIVERSITET, priority 2007, published 2010).
≈ marks a conversion by molar mass, not a printed value.

What was measured:
[1] = at 25° C.
[2] = tested on: fish and aquatic invertebrates; details: if it reaches water bodies

| Structure (SMILES) | water solubility [1] [mg/mL] | toxicity to fish / aquatic invertebrates [2] |
| --- | --- | --- |
| O=C(O)CNCP(=O)(O)O [Glyphosate] | 11.6 (≈ 68.6 mM) |  |
| CCC(CC)Nc1c([N+](=O)[O-])cc(C)c(C)c1[N+](=O)[O-] [Pendimethalin] |  | toxic to fish |
